# Results reported in US12539298B2, “Lobinaline N-oxides as positive allosteric modulators of the dopamine transporter with potential value in the treatment of substance abuse disorders” (University of Kentucky Research Foundation, priority 2019, dated 2026).
# Biological target: DAT (Rattus norvegicus, UniProt P23977)
# Test: DA clearance in striatum of anesthetized rats by in vivo electrochemistry (high-speed chronoamperometry), Example 8
# Parameters: DA clearance in striatum and nucleus accumbens of urethane-anesthetized SD rats; from tissue; host or cells: striatum / nucleus accumbens of living anesthetized SD rats; species or system SD rats
# Experimental: DA clearance in striatum and nucleus accumbens of urethane-anesthetized SD rats was monitored by in vivo electrochemistry using high-speed chrono-amperometry [see 36]. After obtaining reproducible signals for locally applied DA, vehicle or drug was applied slowly over 10-30 sec, then 30-60 sec later the next application of DA was made, with subsequent DA applications at 5-minute intervals for 25-30 min. The DA kinetic data from each animal was analyzed using FAST software (Quanteon). […] These effects were no longer seen 3-5 minutes after lobinaline ejection. They are consistent with simple competitive inhibition of the DAT by lobinaline. […] However, the lobinaline N-oxides produce different effects. Representative data from lobinaline N-oxide, at the same concentration used for lobinaline (1 mM in 250 nl medium) are shown in FIG. 6. […] This is entirely consistent with effects on synaptosomal [3H]DA uptake in vitro above, and probably represents competitive inhibition. However, after exposure to the N-oxide there is a significant and prolonged (c20 min) increase in the first order rate of decay of the DA peak. […] This increase in rate constant induced by the N-oxide varied from 20× to 2× at increasing depths in the DV gradient.
# The uptake rate of locally applied DA (˜100 nl; 200 μM) was measured before and 1 minute after local application of lobinaline (˜250 nl; 1 mM), 403 (˜300 nl; 250 μM) or 419 (˜300 nl; 250 μM) (FIGS. 7, 8, and 9).
# DAT, sequence (P23977 whole entry): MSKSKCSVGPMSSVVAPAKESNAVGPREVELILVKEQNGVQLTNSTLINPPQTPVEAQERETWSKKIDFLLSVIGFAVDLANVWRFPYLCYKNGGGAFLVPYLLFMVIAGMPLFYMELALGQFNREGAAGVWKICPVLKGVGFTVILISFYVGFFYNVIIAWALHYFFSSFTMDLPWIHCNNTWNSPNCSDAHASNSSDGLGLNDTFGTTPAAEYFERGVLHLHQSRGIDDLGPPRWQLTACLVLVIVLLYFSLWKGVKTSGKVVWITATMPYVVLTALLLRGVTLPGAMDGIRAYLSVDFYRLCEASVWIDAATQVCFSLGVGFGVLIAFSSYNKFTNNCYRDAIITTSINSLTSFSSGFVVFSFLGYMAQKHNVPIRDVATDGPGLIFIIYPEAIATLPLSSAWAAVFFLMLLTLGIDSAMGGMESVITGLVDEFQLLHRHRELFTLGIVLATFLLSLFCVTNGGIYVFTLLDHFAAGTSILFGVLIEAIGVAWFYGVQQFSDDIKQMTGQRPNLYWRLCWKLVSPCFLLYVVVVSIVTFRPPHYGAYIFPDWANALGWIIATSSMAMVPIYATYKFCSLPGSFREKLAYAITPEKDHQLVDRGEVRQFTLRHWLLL
structure (smiles),measurement,setting,value
CN1CCCC2C(c3ccccc3)C(C3=NCCCC3)C(c3ccccc3)CC21 (stereo not shown) [lobinaline],effect on DA clearance rate,1-minute post-application,significantly decreased
same,effect on DA peak,"local application 1 mM, 250 nl",non-significantly decreased
same,time after ejection at which effects are no longer seen / DA clearance returns to normal,local ejection in striatum,3 to 5 min
same,reduction in DA clearance,"striatum, 1 minute after local application (lobinaline ~250 nl 1 mM; 403, 419 ~300 nl 250 μM), FIGS. 7-9",50%
